The source of these data is the supplement of paper PMC11208160.
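Further: IS621 recombinase and bridge RNA in Escherichia coli cells.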

This series in a line: recombinant barcode read abundance after kanamycin selection (control-corrected) (log10(CPM+1)); higher = more efficient recombination; sequences stand for … in AGTGCAGAGAAAATCGGCCAGTTTTCTCTGCCTGCAGTCCGCATGCCGT…AGATTTATGCAGCGGACTGCCTTTCTCCCAAAGTGATAAACCGGACAGTATCATGGACCGGTTTTCCCGGTAATCCGTATTTGCAAGGTTGGTTTCACT; site = the 11-nt target. The procedure, abridged:
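Reported as log10(CPM+1), each value stands for recombination efficiency. That efficiency is the averaged, control-corrected counts per million of barcodes found at recombinant junctions. Cells from a pooled E. coli library pairing targets with IS621 bridge RNA target-binding loops were plated twice on chloramphenicol/ampicillin LB agar (control) and twice on chloramphenicol/ampicillin/kanamycin with 0.1 mM IPTG.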
“CACTACCCTTGGGTTCTAACCTGTTGCTT (site AGGCCGTCTCC)”: the “recombinant barcode read abundance (log10)” value worked out at 0.0811.
Under “CACTACCCTTGGGTTCTAACCTGTTGCTT (site CACTACCCTAA)” stands 1.24; under “CACTATCCTTGGGTTCTAACCTGTTGCGG (site CACTAGCCTCC)”, 0.0909.
For “CACTATCCTTGGGTTCTAACCTGTTGCGG (site CACTATCCTCC)” the value was 1.5; for “CACTCACCTTGGGTTCTAACCTGTTGCGG (site CACTCACCTCC)”, 1.38; for “CACTCACCTTGGGTTCTAACCTGTTGCGG (site CACTTAGCTCC)”, 0.0338.
Under “CACTCTCCTTGGGTTCTAACCTGTTGCCT (site CACTCTCCTAG)” stands 0.226; under “CACTCTCCTTGGGTTCTAACCTGTTGCCT (site CACTCTCCTAT)”, 0.00896; under “CACTTAGCTTGGGTTCTAACCTGTTGCGG (site CACTCACCTCC)”, 0.0176.
In the case of “CACTTAGCTTGGGTTCTAACCTGTTGCGG (site CACTTAGCTCC)”, the “recombinant barcode read abundance (log10)” value worked out at 1.28.
Under “CACTTCCCTTGGGTTCTAACCTGTTGCCT (site CACTTCCCTAA)” stands 0.191; under “CACTTCCCTTGGGTTCTAACCTGTTGCCT (site CACTTCCCTAC)”, 0.0709.
In the case of “CACTTCCCTTGGGTTCTAACCTGTTGCCT (site CACTTCCCTAG)”, the “recombinant barcode read abundance (log10)” value is 0.924.
In the case of “CACTTCCCTTGGGTTCTAACCTGTTGCCT (site CACTTCCCTAT)”, the “recombinant barcode read abundance (log10)” value is 0.0298.
Turning to “CACTTCCCTTGGGTTCTAACCTGTTGCTT (site CACTTCCCTAA)”, the “recombinant barcode read abundance (log10)” value turned out to be 1.04.
For “CACTTCCCTTGGGTTCTAACCTGTTGCTT (site CACTTCCCTAC)” the value was 0.0814; for “CACTTCCCTTGGGTTCTAACCTGTTGCTT (site CACTTCCCTAG)”, 0.442; for “CACTTCCCTTGGGTTCTAACCTGTTGCTT (site CACTTCCCTAT)”, 0.443.
For “CACTTGTCTTGGGTTCTAACCTGTTGCCA (site CACTTGTCTTG)” the value was 0.0547.
Under “CACTTGTCTTGGGTTCTAACCTGTTGCCA (site TATTTGTCTTG)” stands 0.0129; under “CAGAAGTCTTGGGTTCTAACCTGTTGCTT (site ACACGTGCTTC)”, 0.0609; under “CAGAAGTCTTGGGTTCTAACCTGTTGCTT (site CAGAAGTCTAA)”, 1.44.
As to “CAGAATACTTGGGTTCTAACCTGTTGCGT (site CAAAATTCTAC)”, the “recombinant barcode read abundance (log10)” value came out at 0.215.
For “CAGAATACTTGGGTTCTAACCTGTTGCGT (site CAGAATACTAC)” the value was 2.24; for “CAGAGAGCTTGGGTTCTAACCTGTTGCCT (site CAGAGAGCTAG)”, 1.2.
Under “CAGAGAGCTTGGGTTCTAACCTGTTGCCT (site CCGAGAGCTAG)” stands 0.0663.
Under “CAGAGAGCTTGGGTTCTAACCTGTTGCCT (site CGGAGAGCTAG)” stands 0.0978.
On to “CAGAGAGCTTGGGTTCTAACCTGTTGCCT (site CTGAGAGCTAG)”, for which the “recombinant barcode read abundance (log10)” value was found to be 0.132.
For “CAGAGCTCTTGGGTTCTAACCTGTTGCCT (site CAGAGCTCTAG)” the value was 1.43; for “CAGAGCTCTTGGGTTCTAACCTGTTGCCT (site CAGAGGTCTAG)”, 0.309; for “CAGAGTCCTTGGGTTCTAACCTGTTGCCT (site CAGAGTCCTAG)”, 1.26.
“CAGAGTCCTTGGGTTCTAACCTGTTGCCT (site CAGAGTCCTAT)”: the “recombinant barcode read abundance (log10)” value was 0.3.
For “CAGATCCCTTGGGTTCTAACCTGTTGCCT (site CAGATCCCTAG)” the value was 1.91; for “CAGATCCCTTGGGTTCTAACCTGTTGCCT (site CCGATCCCTAG)”, 0.0889; for “CAGATCCCTTGGGTTCTAACCTGTTGCCT (site CGGATCCCTAG)”, 0.0247.
For “CAGATCCCTTGGGTTCTAACCTGTTGCCT (site CTGATCCCTAG)” the value was 0.0156.
With “CAGATGACTTGGGTTCTAACCTGTTGCCT (site CAAATTACTAG)”, the “recombinant barcode read abundance (log10)” value came out at 0.393.
For “CAGATGACTTGGGTTCTAACCTGTTGCCT (site CAGATGACTAG)” the value was 1.52.
“CAGCCGTCTTGGGTTCTAACCTGTTGCGG (site CAATCGTCTCC)”: the “recombinant barcode read abundance (log10)” value is 0.0473.
“CAGCCGTCTTGGGTTCTAACCTGTTGCGG (site CAGCCGTCTCC)”: the “recombinant barcode read abundance (log10)” value was determined as 1.09.
Under “CAGCGAGCTTGGGTTCTAACCTGTTGCCG (site CAACGAGCTCG)” stands 0.21.
Under “CAGCGAGCTTGGGTTCTAACCTGTTGCCG (site CACCGAGCTCG)” stands 0.117; under “CAGCGAGCTTGGGTTCTAACCTGTTGCCG (site CAGCGAGCTCG)”, 0.737.
For “CAGCGAGCTTGGGTTCTAACCTGTTGCCG (site CATCGAGCTCG)” the value was 0.0483; for “CAGGAGACTTGGGTTCTAACCTGTTGCCT (site CAGGAGACTAG)”, 1.63.
Take “CAGGAGACTTGGGTTCTAACCTGTTGCCT (site TAGGAGACTGG)”: the “recombinant barcode read abundance (log10)” value was determined as 0.0578.
For “CAGGCGACTTGGGTTCTAACCTGTTGCCT (site CAGGCGACTAG)” the value was 0.0758.
For “CAGGCGACTTGGGTTCTAACCTGTTGCCT (site CAGGCGCCTAG)” the value was 0.556; for “CAGGCGACTTGGGTTCTAACCTGTTGCCT (site CAGGCGGCTAG)”, 0.
For “CAGGCGACTTGGGTTCTAACCTGTTGCCT (site CAGGCGTCTAG)” the value was 0.394; for “CAGGGGACTTGGGTTCTAACCTGTTGCAC (site CAGGGGACTGT)”, 2.38.
On to “CAGGGGACTTGGGTTCTAACCTGTTGCAC (site TCCAACCCTAA)”, for which the “recombinant barcode read abundance (log10)” value stood at 0.0666.
Take “CAGGGTTCTTGGGTTCTAACCTGTTGCCT (site CAGGGTTCTAG)”: the “recombinant barcode read abundance (log10)” value is 2.18.
Under “CAGGGTTCTTGGGTTCTAACCTGTTGCCT (site CCGGGTTCTAG)” stands 0.0396; under “CAGGGTTCTTGGGTTCTAACCTGTTGCCT (site CGGGGTTCTAG)”, 0.12; under “CAGGGTTCTTGGGTTCTAACCTGTTGCCT (site CTGGGTTCTAG)”, 0.21.
Under “CAGGTACCTTGGGTTCTAACCTGTTGCAT (site CAGGTACCTAT)” stands 3.14; under “CAGGTACCTTGGGTTCTAACCTGTTGCAT (site CAGGTACCTCT)”, 0.864; under “CAGGTCCCTTGGGTTCTAACCTGTTGCCG (site ATACGTTCTAT)”, 0.102.
“CAGGTCCCTTGGGTTCTAACCTGTTGCCG (site CAGGTCCCTCG)”: the “recombinant barcode read abundance (log10)” value was 2.74.
Under “CAGGTGACTTGGGTTCTAACCTGTTGCGG (site CAGGTGACTCC)” stands 1.33; under “CAGGTGACTTGGGTTCTAACCTGTTGCGG (site GGATATCCTAA)”, 0.0229.
For “CAGTACGCTTGGGTTCTAACCTGTTGCCT (site CAGCAAGCTAG)” the value was 0.31; for “CAGTACGCTTGGGTTCTAACCTGTTGCCT (site CAGTACGCTAG)”, 0.652; for “CAGTATCCTTGGGTTCTAACCTGTTGCCT (site CAATATCCTAG)”, 0.867.
Under “CAGTATCCTTGGGTTCTAACCTGTTGCCT (site CACTATCCTAG)” stands 0.0764; under “CAGTATCCTTGGGTTCTAACCTGTTGCCT (site CAGTATCCTAG)”, 0.945; under “CAGTATCCTTGGGTTCTAACCTGTTGCCT (site CATTATCCTAG)”, 0.096.
Take “CAGTGCTCTTGGGTTCTAACCTGTTGCCA (site CAATGCTCTAG)”: the “recombinant barcode read abundance (log10)” value amounted to 0.648.
For “CAGTGCTCTTGGGTTCTAACCTGTTGCCA (site CAGTGCTCTTG)” the value was 1.52; for “CAGTGTCCTTGGGTTCTAACCTGTTGCCG (site CAGTGTCCTCG)”, 1.45.
Under “CAGTGTCCTTGGGTTCTAACCTGTTGCCG (site GAGCGTCCTCG)” stands 0.122; under “CATAACCCTTGGGTTCTAACCTGTTGCAT (site ATCGGATCTCG)”, 0.0317; under “CATAACCCTTGGGTTCTAACCTGTTGCAT (site CATAACCCTAT)”, 1.84.
For “CATCAGCCTTGGGTTCTAACCTGTTGCCT (site CATAAGCCTAG)” the value was 0.206; for “CATCAGCCTTGGGTTCTAACCTGTTGCCT (site CATCAGCCTAG)”, 0.547.
Consider “CATCAGCCTTGGGTTCTAACCTGTTGCCT (site CATGAGCCTAG)”, for which the “recombinant barcode read abundance (log10)” value was 0.306.
